Test [1] addresses T1, full-length elephant shark GR (Callorhinchus milii, UniProt V9KGN8).
T1 sequence (V9KGN8 1-704): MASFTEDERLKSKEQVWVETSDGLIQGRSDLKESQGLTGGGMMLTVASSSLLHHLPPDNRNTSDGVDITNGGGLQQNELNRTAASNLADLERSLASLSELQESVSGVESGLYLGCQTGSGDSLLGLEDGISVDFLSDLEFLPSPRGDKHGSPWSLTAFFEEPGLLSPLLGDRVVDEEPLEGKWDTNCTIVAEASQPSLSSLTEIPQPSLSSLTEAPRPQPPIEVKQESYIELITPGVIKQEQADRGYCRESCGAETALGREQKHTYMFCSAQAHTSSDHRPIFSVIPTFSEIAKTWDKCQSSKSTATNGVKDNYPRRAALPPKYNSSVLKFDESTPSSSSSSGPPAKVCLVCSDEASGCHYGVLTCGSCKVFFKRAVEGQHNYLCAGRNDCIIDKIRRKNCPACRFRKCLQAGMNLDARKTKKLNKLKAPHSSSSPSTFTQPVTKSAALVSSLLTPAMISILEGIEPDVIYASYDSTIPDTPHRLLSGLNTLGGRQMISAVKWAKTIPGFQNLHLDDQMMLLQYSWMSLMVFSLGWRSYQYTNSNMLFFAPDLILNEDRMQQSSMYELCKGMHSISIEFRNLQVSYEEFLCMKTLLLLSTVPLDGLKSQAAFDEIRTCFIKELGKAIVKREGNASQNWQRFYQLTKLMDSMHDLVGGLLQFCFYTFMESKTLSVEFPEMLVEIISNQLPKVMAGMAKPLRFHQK
The test is described as follows: cell-based. Also on record: species or system HEK293.

Test [2] concerns the target T1, full-length elephant shark GR. The test is described as follows: cell-based. Also on record: species or system HEK293. The source holds these as a separate data set.
Test [3] has as its target T2, full-length elephant shark MR (Callorhinchus milii, UniProt A0A4W3I5J5).
T2 sequence (A0A4W3I5J5 1-956): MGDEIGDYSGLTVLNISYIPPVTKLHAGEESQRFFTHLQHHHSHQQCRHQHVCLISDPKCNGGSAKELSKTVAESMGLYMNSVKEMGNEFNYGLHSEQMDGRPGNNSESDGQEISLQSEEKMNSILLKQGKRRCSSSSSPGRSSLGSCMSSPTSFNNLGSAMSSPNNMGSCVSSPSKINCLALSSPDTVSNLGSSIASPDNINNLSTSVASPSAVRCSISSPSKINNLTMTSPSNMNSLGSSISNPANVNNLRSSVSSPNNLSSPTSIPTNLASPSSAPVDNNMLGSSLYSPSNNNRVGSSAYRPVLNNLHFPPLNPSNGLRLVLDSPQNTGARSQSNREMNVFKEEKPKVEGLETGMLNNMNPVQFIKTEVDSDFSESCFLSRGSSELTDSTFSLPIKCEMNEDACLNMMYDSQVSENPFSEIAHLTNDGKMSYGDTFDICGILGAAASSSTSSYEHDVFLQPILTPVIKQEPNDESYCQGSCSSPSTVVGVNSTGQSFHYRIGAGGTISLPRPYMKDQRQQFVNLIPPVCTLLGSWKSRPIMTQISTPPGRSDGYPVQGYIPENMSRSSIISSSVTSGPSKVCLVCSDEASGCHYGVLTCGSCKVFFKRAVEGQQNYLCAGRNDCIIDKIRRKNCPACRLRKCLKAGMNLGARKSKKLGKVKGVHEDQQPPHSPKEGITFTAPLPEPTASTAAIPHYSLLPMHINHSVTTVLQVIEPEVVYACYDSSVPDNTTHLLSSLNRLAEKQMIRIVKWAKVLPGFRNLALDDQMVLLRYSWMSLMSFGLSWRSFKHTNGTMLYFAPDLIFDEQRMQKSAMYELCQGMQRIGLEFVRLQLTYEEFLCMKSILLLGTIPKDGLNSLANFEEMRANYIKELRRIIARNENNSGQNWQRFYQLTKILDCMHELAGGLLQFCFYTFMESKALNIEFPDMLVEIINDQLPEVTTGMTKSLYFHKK
The test is described as follows: cell-based. Also on record: species or system HEK293.

For test [4], the target named is T1, full-length elephant shark GR. The test is described as follows: luciferase reporter transactivation in HEK293 cells. Format: cell-based. Background: Reporter assays use an easily measured gene product as a stand-in for the process of interest.

By EC50 is commonly meant the midpoint of the concentration-response curve. For the compound `C[C@]12CC[C@H]3[C@@H](CCC4=CC(=O)CC[C@@]43C)[C@@H]1CC[C@@H]2C(=O)CO` [11-deoxycorticosterone], the EC50 in test [1] was 11.2 nM; in test [2], 11 nM. Consider `C[C@]12C[C@H](O)[C@H]3[C@@H](CCC4=CC(=O)CC[C@@]43C)[C@@H]1CC[C@@H]2C(=O)CO` [corticosterone], for which, in test [3], the EC50 came out at 1 nM. Same read-out and setting: then `C[C@]12CCC(=O)C=C1CC[C@@H]1[C@@H]2[C@@H](O)C[C@]2(C=O)[C@@H](C(=O)CO)CC[C@@H]12` [aldosterone], with 0.08 nM; and `C[C@]12CCC(=O)C=C1CC[C@@H]1[C@@H]2[C@@H](O)C[C@@]2(C)[C@H]1CC[C@]2(O)C(=O)CO` [cortisol], with 2.4 nM.

As to `C[C@]12CCC(=O)C=C1CC[C@@H]1[C@@H]2CC[C@@]2(C)[C@H]1CC[C@]2(O)C(=O)CO` [11-deoxycortisol], the results for the EC50 in test [4] and in test [3] were 289 nM and 0.2 nM, respectively.

Values taken from paper doi:10.1101/2022.10.08.511437v2 (biorxiv, 2023).
